Literature values in patent US20220331377A1, “DELIVERY VEHICLE FOR IN SITU DELIVERING OF PHARMACEUTICAL AGENTS” (priority 2019, published 2022).

Tested on: C. difficile
Settings: patients; P=0.05; cited from earlier work

In the case of `CN[C@H](CC(C)C)C(=O)N[C@H]1C(=O)N[C@@H](CC(N)=O)C(=O)N[C@H]2C(=O)N[C@H]3C(=O)N[C@H](C(=O)N[C@H](C(=O)O)c4cc(O)cc(O)c4-c4cc3ccc4O)[C@H](O)c3ccc(c(Cl)c3)Oc3cc2cc(c3O[C@@H]2O[C@H](CO)[C@@H](O)[C@H](O)[C@H]2O[C@H]2C[C@](C)(N)[C@H](O)[C@H](C)O2)Oc2ccc(cc2Cl)[C@H]1O` [vancomycin], the “recurrent C. difficile disease (RCDD)” value is given as 50%.
